The results in this text go back to PMC7916972, “Therapeutic Targeting of Fumaryl Acetoacetate Hydrolase in Hereditary Tyrosinemia Type I” (International Journal of Molecular Sciences, 2021).

Assay [1] concerns the target T1, Fumarylacetoacetate hydrolase (WT FAH) (Homo sapiens, UniProt P16930).
T1 sequence (P16930 2-419): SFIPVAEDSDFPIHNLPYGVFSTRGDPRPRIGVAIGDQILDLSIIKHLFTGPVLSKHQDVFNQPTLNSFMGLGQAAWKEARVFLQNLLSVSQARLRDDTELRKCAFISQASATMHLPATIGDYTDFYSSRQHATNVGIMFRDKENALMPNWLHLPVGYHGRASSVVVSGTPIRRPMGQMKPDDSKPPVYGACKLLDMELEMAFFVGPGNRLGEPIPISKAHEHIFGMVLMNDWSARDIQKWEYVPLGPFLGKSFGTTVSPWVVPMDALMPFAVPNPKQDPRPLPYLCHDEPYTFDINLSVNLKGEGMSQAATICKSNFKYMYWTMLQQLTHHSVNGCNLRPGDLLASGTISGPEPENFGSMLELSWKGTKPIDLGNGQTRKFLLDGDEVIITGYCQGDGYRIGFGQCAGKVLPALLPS
As to the kind of experiment: STD NMR titration; methyl-TROSY M140 splitting. The format is binding.

The target in assay [2] is T1, Fumarylacetoacetate hydrolase (WT FAH). As to the kind of experiment: STD NMR titration; methyl-TROSY M140 shift. It counts as binding.

In the case of `C#Cc1ccncc1` [G1.30.B10], the dissociation constant Kd in assay [1] is 235 µM.

For `C(#Cc1ccncc1)c1ccncc1` [G2.HT1.1], the Kd in assay [2] stood at 20 µM.

For `Cc1ccnc(NC(=O)c2ccc(C)c(N)c2)c1` [G2.HT1.4], in assay [2], the Kd stood at 21 µM.
